≈ marks a conversion by molar mass, not a printed value. A value given as a limit tells only on which side of the number the result lay.

Holding throughout (assay type): functional
Assay [1] concerns Staphylococcus aureus. Put plainly: Antibacterial activity against Staphylococcus aureus ATCC29213 by CLSI based serial dilution method.
Assay [2] concerns Staphylococcus aureus. Put plainly: Antibacterial activity against methicillin-resistant Staphylococcus aureus 21-5 by CLSI based serial dilution method.
Another assay relates to Enterococcus. The assay can be described thus: Antibacterial activity against vancomycin-resistant Enterococcus ATCC51299 by CLSI based serial dilution method.
In another assay the test system is Enterococcus faecalis. Put plainly: Antibacterial activity against Enterococcus faecalis ATCC29212 by CLSI based serial dilution method.
The subject of the next assay is Pseudomonas aeruginosa. Put plainly: Antibacterial activity against Pseudomonas aeruginosa ATCC27853 by CLSI based serial dilution method.
The next assay deals with Escherichia coli. The assay can be described thus: Antibacterial activity against Escherichia coli ATCC25922 by CLSI based serial dilution method.

For the compound `Cc1ccc(C(C)C)c(OCCCCC[N+](C)(C)CC(=O)N(CC(C)C)CC(C)C)c1.[Br-]`, the MIC with Staphylococcus aureus [1] came to 2 µg/mL; against Staphylococcus aureus [2], 2 µg/mL; against Enterococcus, 8 µg/mL; in the assay on Enterococcus faecalis, 4 µg/mL; against Pseudomonas aeruginosa, 128 µg/mL; with Escherichia coli, 32 µg/mL.
In the case of `Cc1ccc(C(C)C)cc1OCCCC[N+](C)(C)CC(=O)N(CC(C)C)CC(C)C.[Br-]`, the MIC in the assay with Staphylococcus aureus [1] was 4 µg/mL; in the assay on Staphylococcus aureus [2], 4 µg/mL; against Enterococcus, 8 µg/mL; with Enterococcus faecalis it was 8 µg/mL; against Pseudomonas aeruginosa, over 128 µg/mL; with Escherichia coli, 64 µg/mL.
`Cc1ccc(C(C)C)cc1O` [CARVACROL]: the MIC in the assay with Staphylococcus aureus [1] is over 128 µg/mL; in the assay on Staphylococcus aureus [2], over 128 µg/mL; in the assay on Enterococcus, over 128 µg/mL; in the assay on Enterococcus faecalis, 128 µg/mL (≈ 852 µM); against Pseudomonas aeruginosa, over 128 µg/mL; with Escherichia coli, 128 µg/mL (≈ 852 µM).
As to `CCCCCCN(CCCCCC)C(=O)C[N+](C)(C)CCCCOc1cc(C)ccc1C(C)C.[Br-]`, the MIC against Staphylococcus aureus [1], against Staphylococcus aureus [2], in the assay with Enterococcus, against Enterococcus faecalis, with Pseudomonas aeruginosa and against Escherichia coli was over 128 µg/mL throughout.
Consider `CCCCCNC(=O)C[N+](C)(C)CCCCCOc1cc(C(C)C)ccc1C.[Br-]`, for which the MIC amounted to 4 µg/mL in the assay on Staphylococcus aureus [1]; 8 µg/mL against Staphylococcus aureus [2]; 16 µg/mL in the assay with Enterococcus; 8 µg/mL in the assay on Enterococcus faecalis; 64 µg/mL against Pseudomonas aeruginosa; 16 µg/mL in the assay on Escherichia coli.
Regarding `CCCCCCNC(=O)C[N+](C)(C)CCCCCOc1cc(C(C)C)ccc1C.[Br-]`, the MIC with Staphylococcus aureus [1] came out at 2 µg/mL; in the assay on Staphylococcus aureus [2], 2 µg/mL; in the assay with Enterococcus, 8 µg/mL; with Enterococcus faecalis, 2 µg/mL; with Pseudomonas aeruginosa, 16 µg/mL; with Escherichia coli, 8 µg/mL.
In the case of `Cc1ccc(C(C)C)cc1OCCC[N+](C)(C)CC(=O)N(C(C)C)C(C)C.[Br-]`, the MIC in the assay on Staphylococcus aureus [1] is 16 µg/mL; with Staphylococcus aureus [2] it was 64 µg/mL; against Enterococcus it was 32 µg/mL; against Enterococcus faecalis, 32 µg/mL; against Pseudomonas aeruginosa, over 128 µg/mL; in the assay with Escherichia coli, 128 µg/mL.
With `CCCCN(CCCC)C(=O)C[N+](C)(C)CCCCCOc1cc(C(C)C)ccc1C.[Br-]`, the MIC in the assay with Staphylococcus aureus [1] is 1 µg/mL; in the assay on Staphylococcus aureus [2], 2 µg/mL; with Enterococcus it was 32 µg/mL; in the assay on Enterococcus faecalis, 2 µg/mL; in the assay with Pseudomonas aeruginosa, 32 µg/mL; in the assay on Escherichia coli, 16 µg/mL.
`CCCCCCNC(=O)C[N+](C)(C)CCCCCOc1cc(C)ccc1C(C)C.[Br-]`: the MIC with Staphylococcus aureus [1] is 2 µg/mL; against Staphylococcus aureus [2] it was 2 µg/mL; in the assay with Enterococcus, 4 µg/mL; in the assay on Enterococcus faecalis it was 2 µg/mL; in the assay on Pseudomonas aeruginosa, 32 µg/mL; with Escherichia coli, 8 µg/mL.
For `Cc1ccc(C(C)C)c(OCCCC[N+](C)(C)CC(=O)N(C(C)C)C(C)C)c1.[Br-]`, the MIC in the assay with Staphylococcus aureus [1] was 8 µg/mL; in the assay on Staphylococcus aureus [2] it was 16 µg/mL; against Enterococcus it was 32 µg/mL; against Enterococcus faecalis, 16 µg/mL; with Pseudomonas aeruginosa, over 128 µg/mL; against Escherichia coli, 128 µg/mL.
As for `CCCNC(=O)C[N+](C)(C)CCCCOc1cc(C)ccc1C(C)C.[Br-]`, the MIC was 64 µg/mL against Staphylococcus aureus [1]; 128 µg/mL in the assay with Staphylococcus aureus [2]; over 128 µg/mL in the assay with Enterococcus; 128 µg/mL against Enterococcus faecalis; over 128 µg/mL in the assay on Pseudomonas aeruginosa; over 128 µg/mL in the assay with Escherichia coli.
Turning to `CCCCN(CCCC)C(=O)C[N+](C)(C)CCCOc1cc(C)ccc1C(C)C.[Br-]`, the MIC in the assay with Staphylococcus aureus [1] was 8 µg/mL; in the assay with Staphylococcus aureus [2], 8 µg/mL; against Enterococcus it was 32 µg/mL; against Enterococcus faecalis it was 16 µg/mL; against Pseudomonas aeruginosa, over 128 µg/mL; against Escherichia coli, 128 µg/mL.
As to `CC1(C)S[C@@H]2[C@H](NC(=O)[C@H](N)c3ccccc3)C(=O)N2[C@H]1C(=O)O` [AMPICILLIN], the MIC is 0.5 µg/mL (≈ 1.43 µM) against Staphylococcus aureus [1]; 64 µg/mL (≈ 183 µM) with Staphylococcus aureus [2]; 16 µg/mL (≈ 45.8 µM) with Enterococcus; 0.5 µg/mL (≈ 1.43 µM) against Enterococcus faecalis; over 128 µg/mL in the assay on Pseudomonas aeruginosa; 4 µg/mL (≈ 11.4 µM) against Escherichia coli.
As to `CCCCCCCNC(=O)C[N+](C)(C)CCCCOc1cc(C(C)C)ccc1C.[Br-]`, the MIC with Staphylococcus aureus [1] worked out at 1 µg/mL; with Staphylococcus aureus [2], 16 µg/mL; against Enterococcus it was 4 µg/mL; against Enterococcus faecalis it was 2 µg/mL; in the assay with Pseudomonas aeruginosa, 16 µg/mL; with Escherichia coli, 4 µg/mL.
Regarding `CCCNC(=O)C[N+](C)(C)CCCOc1cc(C(C)C)ccc1C.[Br-]`, the MIC against Staphylococcus aureus [1] is 128 µg/mL; in the assay with Staphylococcus aureus [2] it was over 128 µg/mL; with Enterococcus it was over 128 µg/mL; against Enterococcus faecalis, 128 µg/mL; against Pseudomonas aeruginosa, over 128 µg/mL; against Escherichia coli, over 128 µg/mL.
Regarding `Cc1ccc(C(C)C)cc1OCCCC[N+](C)(C)CC(=O)N(C(C)C)C(C)C.[Br-]`, the MIC was 8 µg/mL in the assay with Staphylococcus aureus [1]; 16 µg/mL against Staphylococcus aureus [2]; 32 µg/mL in the assay with Enterococcus; 16 µg/mL against Enterococcus faecalis; over 128 µg/mL in the assay on Pseudomonas aeruginosa; 128 µg/mL in the assay on Escherichia coli.
As for `Cc1ccc(C(C)C)cc1OCCC[N+](C)(C)CC(=O)N1CCOCC1.[Br-]`, the MIC against Staphylococcus aureus [1] is 128 µg/mL; against Staphylococcus aureus [2], over 128 µg/mL; against Enterococcus it was over 128 µg/mL; against Enterococcus faecalis, 128 µg/mL; against Pseudomonas aeruginosa, over 128 µg/mL; in the assay with Escherichia coli, over 128 µg/mL.
Consider `CCCCCCCNC(=O)C[N+](C)(C)CCCOc1cc(C)ccc1C(C)C.[Br-]`, for which the MIC against Staphylococcus aureus [1] is 1 µg/mL; against Staphylococcus aureus [2], 8 µg/mL; with Enterococcus, 4 µg/mL; against Enterococcus faecalis, 2 µg/mL; in the assay with Pseudomonas aeruginosa, 16 µg/mL; against Escherichia coli, 4 µg/mL.
As for `CCCCCCCNC(=O)C[N+](C)(C)CCCCCOc1cc(C(C)C)ccc1C.[Br-]`, the MIC in the assay on Staphylococcus aureus [1] stood at 1 µg/mL; against Staphylococcus aureus [2] it was 4 µg/mL; with Enterococcus, 2 µg/mL; in the assay with Enterococcus faecalis, 1 µg/mL; against Pseudomonas aeruginosa, 8 µg/mL; with Escherichia coli it was 4 µg/mL.
With `CCCN(CCC)C(=O)C[N+](C)(C)CCCCOc1cc(C)ccc1C(C)C.[Br-]`, the MIC against Staphylococcus aureus [1] is 8 µg/mL; with Staphylococcus aureus [2], 16 µg/mL; against Enterococcus, 64 µg/mL; with Enterococcus faecalis, 32 µg/mL; in the assay with Pseudomonas aeruginosa it was over 128 µg/mL; in the assay with Escherichia coli it was 128 µg/mL.
Consider `CCCCN(CCCC)C(=O)C[N+](C)(C)CCCOc1cc(C(C)C)ccc1C.[Br-]`, for which the minimal inhibitory concentration (MIC) against Staphylococcus aureus [1] was 4 µg/mL; with Staphylococcus aureus [2], 8 µg/mL; in the assay on Enterococcus, 16 µg/mL; against Enterococcus faecalis, 8 µg/mL; against Pseudomonas aeruginosa, over 128 µg/mL; against Escherichia coli, 64 µg/mL.
For the compound `CCCNC(=O)C[N+](C)(C)CCCCOc1cc(C(C)C)ccc1C.[Br-]`, the MIC with Staphylococcus aureus [1] is 64 µg/mL; against Staphylococcus aureus [2], over 128 µg/mL; in the assay with Enterococcus, over 128 µg/mL; against Enterococcus faecalis, 64 µg/mL; with Pseudomonas aeruginosa, over 128 µg/mL; against Escherichia coli, 128 µg/mL.
For the compound `Cc1ccc(C(C)C)c(OCCCC[N+](C)(C)CC(=O)N2CCOCC2)c1.[Br-]`, the MIC against Staphylococcus aureus [1], in the assay on Staphylococcus aureus [2], against Enterococcus, against Enterococcus faecalis, against Pseudomonas aeruginosa and against Escherichia coli was over 128 µg/mL each time.
Regarding `CCCCNC(=O)C[N+](C)(C)CCCCOc1cc(C)ccc1C(C)C.[Br-]`, the MIC in the assay with Staphylococcus aureus [1] is 16 µg/mL; with Staphylococcus aureus [2], 16 µg/mL; with Enterococcus, 128 µg/mL; with Enterococcus faecalis it was 64 µg/mL; in the assay on Pseudomonas aeruginosa, over 128 µg/mL; in the assay with Escherichia coli, 128 µg/mL.
Turning to `CCCCCCN(CCCCCC)C(=O)C[N+](C)(C)CCCOc1cc(C)ccc1C(C)C.[Br-]`, the MIC in the assay with Staphylococcus aureus [1] is 16 µg/mL; in the assay on Staphylococcus aureus [2], over 128 µg/mL; in the assay on Enterococcus, 32 µg/mL; against Enterococcus faecalis it was 16 µg/mL; with Pseudomonas aeruginosa, over 128 µg/mL; in the assay on Escherichia coli, 128 µg/mL.
Regarding `CCCCN(CCCC)C(=O)C[N+](C)(C)CCCCOc1cc(C(C)C)ccc1C.[Br-]`, the MIC against Staphylococcus aureus [1] turned out to be 2 µg/mL; in the assay with Staphylococcus aureus [2], 4 µg/mL; against Enterococcus it was 16 µg/mL; against Enterococcus faecalis, 4 µg/mL; with Pseudomonas aeruginosa it was 128 µg/mL; against Escherichia coli, 32 µg/mL.
As to `Cc1ccc(C(C)C)c(OCCCC[N+](C)(C)CC(=O)N2CCSCC2)c1.[Br-]`, the MIC is 64 µg/mL against Staphylococcus aureus [1]; 64 µg/mL with Staphylococcus aureus [2]; over 128 µg/mL in the assay with Enterococcus; 64 µg/mL against Enterococcus faecalis; over 128 µg/mL with Pseudomonas aeruginosa; over 128 µg/mL in the assay with Escherichia coli.
`Cc1ccc(C(C)C)c(OCCC[N+](C)(C)CC(=O)N(CC(C)C)CC(C)C)c1.[Br-]`: the MIC is 4 µg/mL against Staphylococcus aureus [1]; 8 µg/mL with Staphylococcus aureus [2]; 16 µg/mL against Enterococcus; 8 µg/mL in the assay with Enterococcus faecalis; over 128 µg/mL with Pseudomonas aeruginosa; 64 µg/mL in the assay with Escherichia coli.
With `Cc1ccc(C(C)C)c(OCCCCC[N+](C)(C)CC(=O)N(C(C)C)C(C)C)c1.[Br-]`, the MIC against Staphylococcus aureus [1] is 4 µg/mL; with Staphylococcus aureus [2] it was 2 µg/mL; in the assay on Enterococcus it was 16 µg/mL; with Enterococcus faecalis, 8 µg/mL; in the assay on Pseudomonas aeruginosa it was over 128 µg/mL; with Escherichia coli it was 64 µg/mL.
As for `CCCCNC(=O)C[N+](C)(C)CCCOc1cc(C)ccc1C(C)C.[Br-]`, the minimal inhibitory concentration (MIC) was 32 µg/mL with Staphylococcus aureus [1]; 32 µg/mL against Staphylococcus aureus [2]; 128 µg/mL against Enterococcus; 64 µg/mL in the assay on Enterococcus faecalis; over 128 µg/mL with Pseudomonas aeruginosa; 128 µg/mL in the assay with Escherichia coli.
Turning to `CCCCNC(=O)C[N+](C)(C)CCCOc1cc(C(C)C)ccc1C.[Br-]`, the MIC was 32 µg/mL in the assay on Staphylococcus aureus [1]; 64 µg/mL with Staphylococcus aureus [2]; 64 µg/mL with Enterococcus; 32 µg/mL in the assay with Enterococcus faecalis; over 128 µg/mL with Pseudomonas aeruginosa; 64 µg/mL with Escherichia coli.
For `CCCN(CCC)C(=O)C[N+](C)(C)CCCOc1cc(C)ccc1C(C)C.[Br-]`, the MIC with Staphylococcus aureus [1] is 16 µg/mL; against Staphylococcus aureus [2], 16 µg/mL; against Enterococcus, 128 µg/mL; against Enterococcus faecalis, 32 µg/mL; with Pseudomonas aeruginosa, over 128 µg/mL; with Escherichia coli, 128 µg/mL.

As usually defined, the MIC is the least concentration at which growth counts as inhibited. Lower therefore signals greater potency.

The values are drawn from ChEMBL document CHEMBL5608215, “Development of amphipathic derivatives of thymol and carvacrol as potent broad-spectrum antibacterial agents” (Eur J Med Chem, 2024).
